Where no end group is shown, it is not given here.
Columns and labels:
[1] = Half-life of peptides in human plasma (incubation, SPE, liquid chromatography); format: in vitro ADME; conditions: compared with precursor peptide P9
[2] = target: FGFR2B (Homo sapiens, UniProt P21802); assay: SPR detection of interaction with FGFR2B; format: binding
[3] = test system: B16-F10 cells; assay: MTT viability, B16-F10 cells; format: cell-based; conditions: 48 h with bFGF
Method: In vitro anti-tumor activity of a short peptide compound P48 Hela229 (1500 cells/100 μl), B16-F10 (1000 cells/100 μl), NCI-H460 (4000 cells/100 μl) and SGC7901 (4000 cells/100 μl) cells were inoculated in 96-well plates. After incubated overnight adherently, the original medium was replaced with a Dulbecco's modified eagle medium (DMEM) containing 0.1% fetal bovine serum (FBS) or a Roswell Park Memorial Institute 1640 (RPMI-1640) medium containing 0.1% FBS, and culture was continued for 24 h. A mixture of P48 and bFGF, or bFGF alone were added into corresponding wells, and incubated for 48 h; an MTT solution (5 mg/mL) prepared by PBS was added to the cells in each well at 37° C., and treated for 4 h. The MTT was removed by aspiration, 150 μL of DMSO was added to each well, shaking was conducted for 10 min, and an optical density (OD) value was quantified with a microplate reader (SpectraMax M2/M2e, Molecular Devices, Sunnyvale, USA) at a wavelength of 490 nm. The percentage of drug growth inhibition rate was calculated by comparing with the bFGF group. […] The experimental procedure was as follows: 10% FBS-containing medium (500 μl) was added to a lower surface of a transwell insertion chamber, the cells together with the drug were inoculated into an upper chamber, and cultured with a serum-free medium (200 μl). […]

[4] = test system: gastric cancer cells SGC-7901; assay: Flow cytometry cell cycle analysis of SGC-7901 cells; format: cell-based; conditions: P48 with bFGF, 24 h
[5] = test system: gastric cancer cells SGC-7901; assay: SGC-7901 transplanted tumor model in BALB/c nude mice; format: in vivo; conditions: intraperitoneal, 32 and 64 mg/kg·d
Method: SGC-7901 cells were injected subcutaneously into the back of BALB/c nude mice. After 10 days, the mice were randomly divided into 4 groups, each with 12 mice, and were administered intraperitoneally. An administration group included a model group (normal saline group), an AZD4547 group (20 mg/kg·d), and a P48 group (32 mg/kg·d, 64 mg/kg·d). The length and width of the tumor were measured using a vernier caliper. The tumor volume was calculated using a formula V=0.52×L×W^2. The weights of the mice were recorded every 3 days, and the tumor size was recorded […]. After 28 days, the nude mice were sacrificed for dissection, and tissue samples were taken out for further study. The results are shown in FIG. 6, wherein A represents the weight change of the mice, B represents the volume and size of the tumor, C represents the expression of phosphorylated FLG, FRS2α and ERK1/2 in vivo after P48 treatment, and D represents the expression of Ki67 in vivo after P48 treatment.

[6] = target: T1, FGFR1 (Mus musculus, UniProt P16092); assay: Western blot of FGFR1 signaling pathway in melanoma B16-F10; format: cell-based; parameters: endogenous in cells; conditions: bFGF stimulation
Method: (§1) Cervical cancer cells Hela229, melanoma B16-F10, lung cancer cells NCI-H460, gastric cancer cells SGC-7901 and MGC-803 were inoculated into 6-well plates, respectively. After growing adherently overnight, the cells were pretreated with P48 for 10 min or with AZD4547/SSR for 2 h, and incubated with bFGF for 15 min or with KGF for 20 min.

[7] = target: T1, FGFR1; assay: Western blot of bFGF-induced FGFR1 activation in MEF-WT fibroblasts; format: cell-based; parameters: endogenous in cells; host or cells: MEF-WT; Balb/c 3T3; conditions: P48 pretreatment 10 min, bFGF 15 min
Method: (§2) Human embryonic kidney cells HEK-293, fibroblasts MEF-WT and Balb/c 3T3 were inoculated into 6-well plates, respectively. After growing adherently overnight, the cells were pretreated with P48 for 10 min or with AZD4547/PD173074/SSR for 2 h, and incubated with bFGF for 15 min. […] The experimental procedure was as follows: MEF-WT and MEFKO (FGFR1-FGFR2-FRS2a) cells (1×10^6 cells/ml) were inoculated in a 35 mm petri dish. After being adhered to the wall of petri dish overnight, the cells were washed with PBS; FITC-conjugated P48 (1, 10, 100 and 1000 nM) was added, and the cells were incubated in an incubator for 30 min. The cells were immobilized with 1% paraformaldehyde in the dark and washed with PBS. An expression level of the FITC was measured at a fluorescence channel 1 (FL-1) (530 nm), with an excitation wavelength of 488 nm. Data analysis was conducted using CellQuest software (Becton Dickinson).

[8] = target: T1, FGFR1; assay: Western blot of bFGF-induced FGFR1 activation in Balb/c 3T3 fibroblasts; format: cell-based; parameters: endogenous in cells; host or cells: MEF-WT; Balb/c 3T3; conditions: P48 pretreatment 10 min, bFGF 15 min
Method: as §2

[9] = target: T2, FGFR1 (Homo sapiens, UniProt P11362); assay: Western blot of FGFR1 signaling pathway in cervical cancer cells Hela229; format: cell-based; parameters: endogenous in cells; host or cells: Hela229; NCI-H460; SGC-7901; MGC-803; conditions: bFGF stimulation
Method: as §1

[10] = target: T2, FGFR1; assay: Western blot of FGFR1 signaling pathway in lung cancer cells NCI-H460; format: cell-based; parameters: endogenous in cells; host or cells: Hela229; NCI-H460; SGC-7901; MGC-803; conditions: bFGF stimulation
Method: as §1

T1 sequence (P16092 22-822): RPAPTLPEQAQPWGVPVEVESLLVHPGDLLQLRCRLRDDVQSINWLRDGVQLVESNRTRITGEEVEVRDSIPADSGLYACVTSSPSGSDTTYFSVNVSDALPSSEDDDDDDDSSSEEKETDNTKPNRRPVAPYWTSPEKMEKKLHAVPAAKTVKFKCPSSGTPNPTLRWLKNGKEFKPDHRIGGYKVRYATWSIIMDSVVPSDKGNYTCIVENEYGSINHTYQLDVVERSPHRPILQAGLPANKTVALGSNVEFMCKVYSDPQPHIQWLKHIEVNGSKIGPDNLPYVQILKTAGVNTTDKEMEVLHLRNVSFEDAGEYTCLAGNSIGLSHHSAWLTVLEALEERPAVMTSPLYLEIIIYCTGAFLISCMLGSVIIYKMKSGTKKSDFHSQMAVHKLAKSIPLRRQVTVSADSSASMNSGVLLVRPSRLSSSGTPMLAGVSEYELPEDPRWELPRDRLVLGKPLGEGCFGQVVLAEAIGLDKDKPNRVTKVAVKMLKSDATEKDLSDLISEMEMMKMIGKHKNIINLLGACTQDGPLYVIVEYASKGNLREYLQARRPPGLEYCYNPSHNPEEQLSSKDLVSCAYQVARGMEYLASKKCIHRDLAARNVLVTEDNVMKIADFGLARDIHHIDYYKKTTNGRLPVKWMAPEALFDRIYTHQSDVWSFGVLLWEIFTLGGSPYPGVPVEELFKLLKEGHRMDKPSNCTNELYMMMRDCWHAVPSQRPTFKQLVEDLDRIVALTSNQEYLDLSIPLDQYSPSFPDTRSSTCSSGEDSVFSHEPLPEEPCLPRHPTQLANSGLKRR
T2 sequence (P11362 22-822): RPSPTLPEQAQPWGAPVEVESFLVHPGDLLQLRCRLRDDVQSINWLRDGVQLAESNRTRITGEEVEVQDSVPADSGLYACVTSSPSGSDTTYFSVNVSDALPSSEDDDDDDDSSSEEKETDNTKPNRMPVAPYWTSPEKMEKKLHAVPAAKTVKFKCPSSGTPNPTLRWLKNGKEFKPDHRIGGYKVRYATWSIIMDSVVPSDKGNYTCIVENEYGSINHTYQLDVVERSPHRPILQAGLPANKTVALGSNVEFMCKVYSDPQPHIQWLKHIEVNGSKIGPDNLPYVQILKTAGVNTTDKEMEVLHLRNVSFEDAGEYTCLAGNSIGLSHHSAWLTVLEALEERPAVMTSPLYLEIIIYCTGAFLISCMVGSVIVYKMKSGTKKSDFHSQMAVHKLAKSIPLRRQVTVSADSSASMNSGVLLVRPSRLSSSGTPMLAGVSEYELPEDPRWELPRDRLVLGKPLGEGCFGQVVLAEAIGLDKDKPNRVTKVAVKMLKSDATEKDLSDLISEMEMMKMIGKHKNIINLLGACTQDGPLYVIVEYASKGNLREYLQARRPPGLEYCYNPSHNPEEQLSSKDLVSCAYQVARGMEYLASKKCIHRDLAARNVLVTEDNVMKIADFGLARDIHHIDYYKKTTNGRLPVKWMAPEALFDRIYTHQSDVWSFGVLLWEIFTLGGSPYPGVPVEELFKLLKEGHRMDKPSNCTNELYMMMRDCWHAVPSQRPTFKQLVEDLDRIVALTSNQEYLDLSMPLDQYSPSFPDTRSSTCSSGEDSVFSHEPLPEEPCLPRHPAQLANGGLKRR
Sequence of FGFR2B (P21802 22-822 isoform P21802-3 limits assumed): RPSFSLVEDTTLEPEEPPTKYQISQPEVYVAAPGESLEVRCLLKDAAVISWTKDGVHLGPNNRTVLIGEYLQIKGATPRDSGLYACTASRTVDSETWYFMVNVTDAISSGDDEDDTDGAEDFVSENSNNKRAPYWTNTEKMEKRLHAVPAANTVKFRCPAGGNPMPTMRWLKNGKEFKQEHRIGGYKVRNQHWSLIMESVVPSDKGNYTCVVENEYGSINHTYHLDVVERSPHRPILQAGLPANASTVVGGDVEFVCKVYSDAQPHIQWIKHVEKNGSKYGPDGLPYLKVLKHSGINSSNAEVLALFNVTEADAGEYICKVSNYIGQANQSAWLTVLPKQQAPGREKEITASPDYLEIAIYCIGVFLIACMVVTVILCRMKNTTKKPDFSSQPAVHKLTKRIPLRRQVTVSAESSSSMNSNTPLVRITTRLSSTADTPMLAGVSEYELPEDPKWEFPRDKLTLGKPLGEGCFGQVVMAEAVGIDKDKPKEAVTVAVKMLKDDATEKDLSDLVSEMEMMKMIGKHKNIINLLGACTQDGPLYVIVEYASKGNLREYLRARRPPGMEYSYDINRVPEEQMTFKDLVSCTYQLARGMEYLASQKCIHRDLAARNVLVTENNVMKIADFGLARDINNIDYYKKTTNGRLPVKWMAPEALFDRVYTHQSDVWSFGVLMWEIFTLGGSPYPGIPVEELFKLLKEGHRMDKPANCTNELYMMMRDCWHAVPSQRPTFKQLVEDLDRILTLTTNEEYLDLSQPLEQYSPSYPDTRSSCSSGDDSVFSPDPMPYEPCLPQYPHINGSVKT

In the case of “SPPRYPGGGS-NH2 [P48, Ser-Pro-Pro-Arg-Tyr-Pro-Gly-Gly-Gly-Ser-NH2]”, the half-life in plasma [1] is reported as “relatively prolonged half-life”, the “binding to FGFR2B” value [2] is reported as “can be bound” and the “inhibition of cancer cell viability” value [3] is reported as “can significantly inhibit the viability of cancer cells”. The cell cycle arrest [4] was “can block gastric cancer cells SGC-7901 in G0/G1 phase in a concentration-dependent manner”, the “inhibition of FGFR1 signaling pathways in tumors (phosphorylated FLG, FRS2a, ERK1/2)” value ([5]; 28 days) was “desirable inhibitory effect” and the “inhibition of tumor growth” value ([5]; 28 days) was “can significantly inhibit the growth of gastric cancer cells SGC-7901”. For the same substance, the “inhibition of Ki67 expression (immunohistochemistry)” value ([5]; compared with control group) was “can inhibit the expression of Ki67 in a concentration-dependent manner”, the “inhibition of FGFR1 signaling pathway” value [6] was “can inhibit the FGFR1 signaling pathway of cervical cancer, melanoma, lung cancer and gastric cancer in a concentration-dependent manner” and the “inhibition of FGFR1 activation induced by bFGF” value [7] was “can inhibit activation of FGFR1 induced by bFGF in a concentration-dependent manner”. The “inhibition of FGFR1 activation induced by bFGF” value [8] was “can inhibit activation of FGFR1 induced by bFGF in a concentration-dependent manner”, the “inhibition of FGFR1 signaling pathway” value [9] was “can inhibit the FGFR1 signaling pathway of cervical cancer, melanoma, lung cancer and gastric cancer in a concentration-dependent manner” and the “inhibition of FGFR1 signaling pathway” value [10] was “can inhibit the FGFR1 signaling pathway of cervical cancer, melanoma, lung cancer and gastric cancer in a concentration-dependent manner”.
